Reference: the supplement of paper PMC9938120

What was measured:
Assay in all cases: drug sensitivity score (DSS3, normalised partial AUC of % inhibition dose-response) (DSS (score)); higher = more sensitive (stronger inhibition of viability); extreme values may be limits of the assay
FMOC11 = patient-derived high-grade serous ovarian cancer cells; details: 72 h; library: FO5A; assay format: 2D, 384-well, CellTiter-Glo
In short: (§1)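 On 384-well flat clear-bottom plates carrying compounds at five concentrations across a 10,000-fold range, patient-derived ovarian cancer cells below passage 10 were incubated for 72 h at 37 °C with 5% CO2. CellTiter-Glo readout of viability was processed in Breeze. A higher drug sensitivity score, defined as the partial area under the percent-inhibition dose-response curve divided by the log of the upper asymptote, means greater sensitivity.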

FMOC28 = patient-derived low-grade serous ovarian cancer cells; details: 72 h; library: FO5A; assay format: 2D, 384-well, CellTiter-Glo
In short: as §1

FMOC17 = patient-derived low-grade serous ovarian cancer cells; details: 72 h; library: FO5A; assay format: 2D, 384-well, CellTiter-Glo
In short: as §1

FMOC02_2 = patient-derived low-grade serous ovarian cancer cells; details: 72 h; library: FO5A; assay format: 2D, 384-well, CellTiter-Glo
In short: as §1

FMOC03 = patient-derived mucinous ovarian cancer cells; details: 72 h; library: FO5A; assay format: 2D, 384-well, CellTiter-Glo
In short: as §1

FMOC02_3 = patient-derived low-grade serous ovarian cancer cells; details: 72 h; library: FO5A; assay format: 2D, 384-well, CellTiter-Glo
In short: as §1

FMOC09 = patient-derived high-grade serous ovarian cancer cells; details: 72 h; library: FO5A; assay format: 2D, 384-well, CellTiter-Glo
In short: as §1

FMOC25_2 = patient-derived low-grade serous ovarian cancer cells; details: 72 h; library: FO5A; assay format: 2D, 384-well, CellTiter-Glo
In short: as §1

FMOC02_1 = patient-derived low-grade serous ovarian cancer cells; details: 72 h; library: FO5A; assay format: 2D, 384-well, CellTiter-Glo
In short: as §1

FMOC24 = patient-derived high-grade serous ovarian cancer cells; details: 72 h; library: FO5A; assay format: 2D, 384-well, CellTiter-Glo
In short: as §1

FMOC25_1 = patient-derived low-grade serous ovarian cancer cells; details: 72 h; library: FO4B; assay format: 2D, 384-well, CellTiter-Glo
In short: as §1

FMOC04 = patient-derived high-grade serous ovarian cancer cells; details: 72 h; library: FO5A; assay format: 2D, 384-well, CellTiter-Glo
In short: as §1

FMOC22 = patient-derived mucinous ovarian cancer cells; details: 72 h; library: FO5A; assay format: 2D, 384-well, CellTiter-Glo
In short: as §1

FMOC06 = patient-derived mucinous ovarian cancer cells; details: 72 h; library: FO5A; assay format: 2D, 384-well, CellTiter-Glo
In short: as §1

FMOC14 = patient-derived high-grade serous ovarian cancer cells; details: 72 h; library: FO5A; assay format: 2D, 384-well, CellTiter-Glo
In short: as §1

FMOC27 = patient-derived low-grade serous ovarian cancer cells; details: 72 h; library: FO5A; assay format: 2D, 384-well, CellTiter-Glo
In short: as §1

Compound: OC[C@H]1O[C@@H](n2cnc3c2N=CNC[C@H]3O)C[C@@H]1O [Pentostatin]
- drug sensitivity score (FMOC11): 0
- drug sensitivity score (FMOC28): 0
- drug sensitivity score (FMOC17): 0
- drug sensitivity score (FMOC02_2): 0
- drug sensitivity score (FMOC03): 0
- drug sensitivity score (FMOC02_3): 0
- drug sensitivity score (FMOC09): 0
- drug sensitivity score (FMOC25_2): 0
- drug sensitivity score (FMOC02_1): 0
- drug sensitivity score (FMOC24): 0
- drug sensitivity score (FMOC25_1): 0
- drug sensitivity score (FMOC04): 0
- drug sensitivity score (FMOC22): 0
- drug sensitivity score (FMOC06): 0
- drug sensitivity score (FMOC14): 0
- drug sensitivity score (FMOC27): 0

Compound: O=C(NC[C@H](O)CN1CCc2ccccc2C1)c1cc(NC2COC2)ncn1
- drug sensitivity score (FMOC11): 0
- drug sensitivity score (FMOC28): 0
- drug sensitivity score (FMOC17): 0
- drug sensitivity score (FMOC02_2): 0
- drug sensitivity score (FMOC03): 0
- drug sensitivity score (FMOC02_3): 1.3
- drug sensitivity score (FMOC09): 0.3
- drug sensitivity score (FMOC25_2): 0.2
- drug sensitivity score (FMOC02_1): 0
- drug sensitivity score (FMOC24): 0.5
- drug sensitivity score (FMOC25_1): 1
- drug sensitivity score (FMOC04): 0
- drug sensitivity score (FMOC22): 1.8
- drug sensitivity score (FMOC06): 0
- drug sensitivity score (FMOC14): 0
- drug sensitivity score (FMOC27): 1.1

Compound: CC(C)c1c(C(=O)Nc2ccccc2)c(-c2ccccc2)c(-c2ccc(F)cc2)n1CC[C@@H](O)C[C@@H](O)CC(=O)O [Atorvastatin]
- drug sensitivity score (FMOC11): 3.1
- drug sensitivity score (FMOC28): 5.3
- drug sensitivity score (FMOC17): 2.9
- drug sensitivity score (FMOC02_2): 1.9
- drug sensitivity score (FMOC03): 2.9
- drug sensitivity score (FMOC02_3): 1.5
- drug sensitivity score (FMOC09): 4.9
- drug sensitivity score (FMOC25_2): 3.2
- drug sensitivity score (FMOC02_1): 1
- drug sensitivity score (FMOC24): 6.75
- drug sensitivity score (FMOC25_1): 0.6
- drug sensitivity score (FMOC04): 0.65
- drug sensitivity score (FMOC22): 4.5
- drug sensitivity score (FMOC06): 1.6
- drug sensitivity score (FMOC14): 3.2
- drug sensitivity score (FMOC27): 0

Compound: CCOc1ccn(-c2ccc(F)cc2)c(=O)c1C(=O)Nc1ccc(Oc2ccnc(N)c2Cl)c(F)c1
- drug sensitivity score (FMOC11): 0
- drug sensitivity score (FMOC28): 0
- drug sensitivity score (FMOC17): 0
- drug sensitivity score (FMOC02_2): 0.9
- drug sensitivity score (FMOC03): 0
- drug sensitivity score (FMOC02_3): 0
- drug sensitivity score (FMOC09): 0
- drug sensitivity score (FMOC25_2): 0
- drug sensitivity score (FMOC02_1): 0
- drug sensitivity score (FMOC24): 0
- drug sensitivity score (FMOC25_1): 0
- drug sensitivity score (FMOC04): 0
- drug sensitivity score (FMOC22): 0
- drug sensitivity score (FMOC06): 0
- drug sensitivity score (FMOC14): 0
- drug sensitivity score (FMOC27): 0

Compound: O=C(O)CNC(=O)c1c(O)c2ccccc2n(Cc2ccccc2)c1=O [IOX-2]
- drug sensitivity score (FMOC11): 0
- drug sensitivity score (FMOC28): 3.2
- drug sensitivity score (FMOC17): 0
- drug sensitivity score (FMOC02_2): 0.5
- drug sensitivity score (FMOC03): 0
- drug sensitivity score (FMOC02_3): 0
- drug sensitivity score (FMOC09): 0
- drug sensitivity score (FMOC25_2): 0.9
- drug sensitivity score (FMOC02_1): 0.5
- drug sensitivity score (FMOC24): 1.75
- drug sensitivity score (FMOC25_1): 0
- drug sensitivity score (FMOC04): 0
- drug sensitivity score (FMOC22): 0
- drug sensitivity score (FMOC06): 0
- drug sensitivity score (FMOC14): 0
- drug sensitivity score (FMOC27): 0

Compound: Cc1ccc(NC(=O)c2ccc(CN3CCN(C)CC3)cc2)cc1Nc1nccc(-c2cccnc2)n1 [Imatinib]
- drug sensitivity score (FMOC11): 0
- drug sensitivity score (FMOC28): 0
- drug sensitivity score (FMOC17): 0
- drug sensitivity score (FMOC02_2): 1.2
- drug sensitivity score (FMOC03): 0.4
- drug sensitivity score (FMOC02_3): 1.6
- drug sensitivity score (FMOC09): 0
- drug sensitivity score (FMOC25_2): 0.1
- drug sensitivity score (FMOC02_1): 0.3
- drug sensitivity score (FMOC24): 2.75
- drug sensitivity score (FMOC25_1): 0.3
- drug sensitivity score (FMOC04): 0
- drug sensitivity score (FMOC22): 0
- drug sensitivity score (FMOC06): 0
- drug sensitivity score (FMOC14): 2
- drug sensitivity score (FMOC27): 0

Compound: CC(C)N(CCCNC(=O)Nc1ccc(C(C)(C)C)cc1)C[C@H]1O[C@@H](n2cc(Br)c3c(N)ncnc32)[C@H](O)[C@@H]1O [SGC0946]
- drug sensitivity score (FMOC11): 0.6
- drug sensitivity score (FMOC28): 3.3
- drug sensitivity score (FMOC17): 2
- drug sensitivity score (FMOC02_2): 2.8
- drug sensitivity score (FMOC03): 0.1
- drug sensitivity score (FMOC02_3): 0.9
- drug sensitivity score (FMOC09): 0
- drug sensitivity score (FMOC25_2): 2.5
- drug sensitivity score (FMOC02_1): 1.2
- drug sensitivity score (FMOC24): 3.95
- drug sensitivity score (FMOC25_1): 0
- drug sensitivity score (FMOC04): 0.95
- drug sensitivity score (FMOC22): 0.1
- drug sensitivity score (FMOC06): 1.4
- drug sensitivity score (FMOC14): 0
- drug sensitivity score (FMOC27): 1.8

Compound: C=C(c1ccc(C(=O)O)cc1)c1cc2c(cc1C)C(C)(C)CCC2(C)C [Bexarotene]
- drug sensitivity score (FMOC11): 1.2
- drug sensitivity score (FMOC28): 5.3
- drug sensitivity score (FMOC17): 0.1
- drug sensitivity score (FMOC02_2): 6
- drug sensitivity score (FMOC03): 1.7
- drug sensitivity score (FMOC02_3): 4.3
- drug sensitivity score (FMOC09): 1.8
- drug sensitivity score (FMOC25_2): 0
- drug sensitivity score (FMOC02_1): 0
- drug sensitivity score (FMOC24): 0.9
- drug sensitivity score (FMOC25_1): 0.3
- drug sensitivity score (FMOC04): 0
- drug sensitivity score (FMOC22): 1.1
- drug sensitivity score (FMOC06): 0
- drug sensitivity score (FMOC14): 0
- drug sensitivity score (FMOC27): 1.5

Compound: Cc1cccc(-c2nn3c(c2-c2ccnc4ccc(C(N)=O)cc24)CCC3)n1 [Galunisertib]
- drug sensitivity score (FMOC11): 0
- drug sensitivity score (FMOC28): 0
- drug sensitivity score (FMOC17): 0
- drug sensitivity score (FMOC02_2): 0
- drug sensitivity score (FMOC03): 0
- drug sensitivity score (FMOC02_3): 0
- drug sensitivity score (FMOC09): 0
- drug sensitivity score (FMOC25_2): 0
- drug sensitivity score (FMOC02_1): 0
- drug sensitivity score (FMOC24): 0.35
- drug sensitivity score (FMOC25_1): 0
- drug sensitivity score (FMOC04): 0
- drug sensitivity score (FMOC22): 0
- drug sensitivity score (FMOC06): 0
- drug sensitivity score (FMOC14): 0
- drug sensitivity score (FMOC27): 0

Compound: C[C@H](Nc1ncnc2nc[nH]c12)c1cc2cccc(Cl)c2c(=O)n1-c1ccccc1 [Duvelisib]
- drug sensitivity score (FMOC11): 0.7
- drug sensitivity score (FMOC28): 0
- drug sensitivity score (FMOC17): 0.5
- drug sensitivity score (FMOC02_2): 0.1
- drug sensitivity score (FMOC03): 0
- drug sensitivity score (FMOC02_3): 0
- drug sensitivity score (FMOC09): 0
- drug sensitivity score (FMOC25_2): 0
- drug sensitivity score (FMOC02_1): 0
- drug sensitivity score (FMOC24): 0.65
- drug sensitivity score (FMOC25_1): 0
- drug sensitivity score (FMOC04): 0
- drug sensitivity score (FMOC22): 0
- drug sensitivity score (FMOC06): 1
- drug sensitivity score (FMOC14): 0
- drug sensitivity score (FMOC27): 0.1

Compound: FC(F)(F)c1ccc(CNc2ccc(Cc3c[nH]c4ncc(Cl)cc34)cn2)cn1 [Pexidartinib]
- drug sensitivity score (FMOC11): 2.6
- drug sensitivity score (FMOC28): 0.1
- drug sensitivity score (FMOC17): 1.4
- drug sensitivity score (FMOC02_2): 2.5
- drug sensitivity score (FMOC03): 0
- drug sensitivity score (FMOC02_3): 3.1
- drug sensitivity score (FMOC09): 4.1
- drug sensitivity score (FMOC25_2): 0
- drug sensitivity score (FMOC02_1): 3.9
- drug sensitivity score (FMOC24): 1.3
- drug sensitivity score (FMOC25_1): 1.6
- drug sensitivity score (FMOC04): 0.1
- drug sensitivity score (FMOC22): 0.3
- drug sensitivity score (FMOC06): 0.9
- drug sensitivity score (FMOC14): 0
- drug sensitivity score (FMOC27): 0
